Test results reported in article PMC3889502, “Inhibitory effects of monoterpenes on human TRPA1 and the structural basis of their activity” (The Journal of Physiological Sciences : JPS, 2013).
“Also recorded” adds a separate entry of the source.

How the values were obtained:
hTRPA1 [1] = target: T1, hTRPA1 (Homo sapiens, UniProt O75762); assay: Ca2+-imaging (fura-2): activation by test compounds, normalized to menthol; type: cell-based; details: test compound 1 mM; HEK293T cells expressing hTRPA1
T1 construct: Full-length hTRPA1 was obtained from Life Technologies (Carlsbad, CA); host or cells: HEK293T
T1 sequence (O75762 whole entry): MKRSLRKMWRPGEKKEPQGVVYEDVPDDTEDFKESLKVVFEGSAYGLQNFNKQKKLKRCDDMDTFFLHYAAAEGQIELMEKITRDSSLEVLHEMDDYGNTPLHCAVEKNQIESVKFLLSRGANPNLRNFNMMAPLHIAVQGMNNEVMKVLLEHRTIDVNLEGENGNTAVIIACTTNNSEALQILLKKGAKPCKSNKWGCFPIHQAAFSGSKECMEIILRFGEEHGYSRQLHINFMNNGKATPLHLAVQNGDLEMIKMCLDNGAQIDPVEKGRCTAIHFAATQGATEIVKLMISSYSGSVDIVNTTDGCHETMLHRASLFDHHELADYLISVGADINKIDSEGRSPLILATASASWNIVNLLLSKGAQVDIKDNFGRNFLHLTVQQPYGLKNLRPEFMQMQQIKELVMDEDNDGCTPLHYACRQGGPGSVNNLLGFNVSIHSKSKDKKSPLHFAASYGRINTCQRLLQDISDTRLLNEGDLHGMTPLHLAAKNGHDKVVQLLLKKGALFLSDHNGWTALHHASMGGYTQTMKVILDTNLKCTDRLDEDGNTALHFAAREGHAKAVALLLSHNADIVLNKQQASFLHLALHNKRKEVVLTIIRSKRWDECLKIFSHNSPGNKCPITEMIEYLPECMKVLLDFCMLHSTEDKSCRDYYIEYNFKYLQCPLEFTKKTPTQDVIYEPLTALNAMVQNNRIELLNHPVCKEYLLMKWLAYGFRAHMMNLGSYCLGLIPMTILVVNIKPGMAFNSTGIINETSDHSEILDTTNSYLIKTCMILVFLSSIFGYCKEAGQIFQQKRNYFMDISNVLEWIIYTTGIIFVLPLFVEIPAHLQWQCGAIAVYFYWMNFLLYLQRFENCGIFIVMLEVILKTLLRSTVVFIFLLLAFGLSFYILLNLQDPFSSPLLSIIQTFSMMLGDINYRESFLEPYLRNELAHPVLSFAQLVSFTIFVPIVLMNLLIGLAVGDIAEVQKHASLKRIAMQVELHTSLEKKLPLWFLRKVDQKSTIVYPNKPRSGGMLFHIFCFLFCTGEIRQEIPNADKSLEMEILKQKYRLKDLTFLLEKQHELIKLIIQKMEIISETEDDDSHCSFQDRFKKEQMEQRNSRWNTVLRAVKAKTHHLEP
Experimental: (§1) For Ca^2+-imaging, 1 μg of plasmid DNA containing hTRPA1 in pcDNA3 in OPTI-MEM medium (Life Technologies) was transfected into HEK293T cells using Lipofectamine Plus Reagent (Life Technologies). Following incubation for 3–4 h, cells were reseeded on coverslips and incubated further at 37 °C in 5 % CO2.
(§2) Ca^2+-imaging was performed 1 day after transfection. […] Cytosolic-free Ca^2+ concentrations in HEK293T cells were measured by dual-wavelength fura-2 (Molecular Probes, Invitrogen Corp.) microfluorometry with excitation at 340/380 nm and emission at 510 nm. The fura-2 ratio image was calculated and acquired using the IP-Lab imaging processing system (Scanalytics Inc, Fairfax, VA). Ionomycin was used to confirm cell viability in the vector-transfected cells.
In these experiments, changes in the fura-2 ratio (corresponding to cytosolic Ca^2+ concentrations) induced by the test compounds and menthol were compared because menthol, which activates hTRPA1, and the test compounds are members of the monoterpene family.
Data are presented as the mean ± standard error of the mean (SEM) (n = 27–67)

hTRPA1 [2] = target: T1, hTRPA1; details: cited from earlier work
hTRPA1-S873V/T874L = target: T2, hTRPA1-S873V/T874L (Homo sapiens, UniProt O75762, S873V/T874L); assay: Whole-cell patch-clamp: inhibition of AITC-activated current in the mutant channel; type: cell-based; details: borneol 0.03, 0.3, 1 mM; camphor 0.03, 0.3, 3 mM; 1,8-cineole 1, 5, 10 mM; -60 mV; no extracellular Ca2+
T2 construct: Full-length hTRPA1 was obtained from Life Technologies (Carlsbad, CA); expressed in transfected cells; host or cells: HEK293T
T2 sequence (O75762 whole entry S873V/T874L): as the sequence (O75762 whole entry) above, with S873V, T874L counted along it
Experimental: (§3) Whole-cell patch-clamp recordings were performed 1 day after transfection. The standard bath solution was the same as that used in the Ca^2+-imaging experiments, and extracellular Ca^2+ was removed and 5 mM EGTA added for the recording of AITC-, menthol- and FFA-induced current responses. The pipette solution contained 140 mM KCl, 5 mM EGTA, and 10 mM HEPES, pH 7.4 (adjusted with KOH). Data from the whole-cell voltage-clamp recordings were sampled at 10 kHz and filtered at 5 kHz for analysis (Axon 200B amplifier with pCLAMP software; Axon Instruments, Sunnyvale, CA). The membrane potential was clamped at −60 mV for all conditions. In some experiments, voltage ramp-pulses from −100 to +100 mV (500 ms) were applied every 5 s. All experiments were performed at room temperature.
(§4) Data in all of the figures are shown as the mean ± standard error of the mean, and P values of <0.05 were considered to be significant. […] Dose-dependent curves were fit with a Hill equation.
(§5) To test this hypothesis, we investigated whether the serine and threonine residues are involved in the inhibitory effect of borneol. […] We searched for an involvement of other amino acids in borneol activity.

hTRPA1-Y812A = target: T3, hTRPA1-Y812A (Homo sapiens, UniProt O75762, Y812A); assay: as above; type: cell-based; details: borneol 0.03, 0.3, 1 mM; camphor 0.03, 0.3, 3 mM; 1,8-cineole 1, 5, 10 mM; -60 mV; no extracellular Ca2+
T3 construct: Full-length hTRPA1 was obtained from Life Technologies (Carlsbad, CA); expressed in transfected cells; host or cells: HEK293T
T3 sequence (O75762 whole entry Y812A): as the sequence (O75762 whole entry) above, with Y812A counted along it
Experimental: as §3, §4, §5

hTRPA1 [3] = target: T1, hTRPA1; assay: Whole-cell patch-clamp: activation of hTRPA1 current by test compounds; type: cell-based; details: HEK293T cells expressing hTRPA1
Experimental: (§6) Human embryonic kidney (HEK) 293T cells were maintained in DMEM (WAKO Pure Chemical Industries Ltd.) supplemented with 10 % fetal bovine serum (Biowest SAS, Caille, France), 100 U/mL penicillin (Life Technologies), 100 μg/mL streptomycin (Life Technologies), and 2 mM L-glutamine (GlutaMAX; Life Technologies) at 37 °C in 5 % CO2. For Ca^2+-imaging, 1 μg of plasmid DNA containing hTRPA1 in pcDNA3 in OPTI-MEM medium (Life Technologies) was transfected into HEK293T cells using Lipofectamine Plus Reagent (Life Technologies). Following incubation for 3–4 h, cells were reseeded on coverslips and incubated further at 37 °C in 5 % CO2.
as §3
In order to confirm the effects of the above compounds, we performed patch-clamp experiments with HEK293T cells expressing hTRPA1.
Cells were held at −60 mV and ramp-pulses from −100 to +100 mV (500 ms) were administered every 5 s

[4] = tested on: vector-transfected HEK293T cells; assay: Ca2+-imaging in vector-transfected cells (control); type: cell-based, human; details: with or without menthol; cells responded normally to ionomycin 5 μM
Experimental: (§7) Ca^2+-imaging was performed 1 day after transfection. HEK293T cells on coverslips were mounted in an open chamber and superfused with a standard bath solution (140 mM NaCl, 5 mM KCl, 2 mM MgCl2, 2 mM CaCl2, 10 mM HEPES, and 10 mM glucose, pH 7.4). Cytosolic-free Ca^2+ concentrations in HEK293T cells were measured by dual-wavelength fura-2 (Molecular Probes, Invitrogen Corp.) microfluorometry with excitation at 340/380 nm and emission at 510 nm. The fura-2 ratio image was calculated and acquired using the IP-Lab imaging processing system (Scanalytics Inc, Fairfax, VA). Ionomycin was used to confirm cell viability in the vector-transfected cells.
Washing-out of the three compounds after menthol exposure led to small increases in the fura-2 ratio, which could be due to the loss of inhibition and resumption of hTRPA1 activity from residual menthol in the cell.
Supplementary file 12576_2013_289_MOESM1_ESM.jpg: Supplementary material 1 (JPEG 324 kb) Supplementary Figure 1. […] (n = 48-75)

hTRPA1 [5] = target: T1, hTRPA1; assay: Whole-cell patch-clamp: inhibition of agonist-induced hTRPA1 current; type: cell-based; details: for IC50 / Inhibition of AITC-induced hTRPA1 current: AITC 20 μM; for IC50: patch-clamp, mean ± SEM, n = 5-10, Hill fit; for IC50 / Inhibition of AITC-induced hTRPA1 current / Inhibition of FFA-activated hTRPA1-mediated current / Inhibition of menthol-activated hTRPA1-mediated current: no extracellular Ca2+; for Inhibition of AITC-induced hTRPA1 current / Inhibition of FFA-activated hTRPA1-mediated current / Inhibition of menthol-activated hTRPA1-mediated current: test compound 1 mM, -60 mV; for Inhibition of FFA-activated hTRPA1-mediated current: FFA 100 μM; for Inhibition of menthol-activated hTRPA1-mediated current: menthol 1 mM; for Comparison of inhibitory effects on hTRPA1 activity between optical isomers of borneol: AITC 20 μM-induced current (ESM Fig. 2)
Experimental: as §6, §3, §4
The current response was measured in the absence of extracellular Ca^2+ to minimize desensitization. […] The dose-dependency of the inhibitory effects of the three compounds on hTRPA1 was then examined using the patch-clamp method. […] Commercially available borneol contains both optical isomers.

hTRPA1 [6] = target: T1, hTRPA1; assay: Ca2+-imaging (fura-2): inhibition of menthol-induced cytosolic Ca2+ increase; type: cell-based; details: menthol 1 mM; test compound 1 mM; HEK293T cells expressing hTRPA1
Experimental: as §1, §2
Data are presented as the mean ± SEM (n = 47–79)

hTRPA1 Y812A mutant = target: T4, hTRPA1 Y812A mutant (Homo sapiens, UniProt O75762, Y812A); assay: Ca2+-imaging screen of tyrosine mutants in TM2 and TM3 of hTRPA1; type: cell-based; details: data not shown
T4 construct: Full-length hTRPA1 was obtained from Life Technologies (Carlsbad, CA); expressed in transfected cells; host or cells: HEK293T
T4 sequence (O75762 whole entry Y812A): as the sequence (O75762 whole entry) above, with Y812A counted along it
Experimental: as §7
A mouse TRPA1 mutant in which serine and threonine residues located in the predicted inner side of TM5 were replaced with valine and leucine (S876V/T877L), respectively, was neither activated nor inhibited by menthol. […] To test this hypothesis, we investigated whether the serine and threonine residues are involved in the inhibitory effect of borneol. […] We searched for an involvement of other amino acids in borneol activity.

mTRPA1 = details: camphor 1 mM; current increased upon washing-out; cited from earlier work
[7] = test compound 1 mM, held at -60 mV, ramp-pulses -100 to +100 mV

## CC12CCC(C1)C(C)(C)C2=O (single isomer, unassigned; (-)) [(−)-Fenchone]
hTRPA1 [1]
  Change in fura-2 ratio (340/380 nm) by test compound, normalized to the change by 1 mM menthol: activated hTRPA1

## CC(C)C12CCC(C)(CC1)O2 [1,4-cineole]
hTRPA1 [2]
  Effect on hTRPA1 (activation or inhibition): activate hTRPA1

## CC12CCC(CC1)C(C)(C)O2 [1,8-Cineole]
hTRPA1 [2]
  Effect on hTRPA1 (activation or inhibition): inhibit hTRPA1
hTRPA1-S873V/T874L
  Inhibitory effect on AITC-activated current of hTRPA1-S873V/T874L compared with hTRPA1-WT: no significant changes
hTRPA1-Y812A
  Inhibitory effect on AITC-activated current of hTRPA1-Y812A compared with hTRPA1-WT: such differences between WT hTRPA1 and hTRPA1-Y812A were not observed

## CC1(C)[C@@H]2CC[C@@]1(C)[C@](C)(O)C2 [2-Methylisoborneol]
hTRPA1 [3]; [7]
  Activation of whole-cell hTRPA1 current: did not activate hTRPA1
[4]
  Effect on fura-2 ratio in vector-transfected cells: did not provide any effect; also recorded: No changes in the fura-2 ratio
hTRPA1 [5]
  IC50: 120 ± 30 µM
  Inhibition of AITC-induced hTRPA1 current: completely inhibited
  Inhibition of FFA-activated hTRPA1-mediated current: completely inhibited
  Inhibition of menthol-activated hTRPA1-mediated current: completely inhibited
hTRPA1 [1]
  Change in fura-2 ratio (340/380 nm) by test compound, normalized to the change by 1 mM menthol: small changes in the fura-2 ratio
hTRPA1 [6]
  Inhibition of the menthol-induced increase in fura-2 ratio: almost completely blocked

## CC1(C)[C@@H]2CC[C@@]1(C)[C@@H](O)C2 [(+)-borneol]
hTRPA1 [5]
  Comparison of inhibitory effects on hTRPA1 activity between optical isomers of borneol: no difference in the inhibitory effects

## CC1(C)[C@H]2CC[C@]1(C)[C@H](O)C2 [(−)-borneol]
hTRPA1 [5]
  Comparison of inhibitory effects on hTRPA1 activity between optical isomers of borneol: no difference in the inhibitory effects

## C=CCN=C=S [AITC, allyl isothiocyanate, reference compound]
hTRPA1 [3]; AITC 20 μM
  Activation of whole-cell hTRPA1 current: robust current activation with outward rectification

## CC1(C)C2CCC1(C)C(O)C2 (centres unmarked) [Borneol]
hTRPA1 [3]; [7]
  Activation of whole-cell hTRPA1 current: did not activate hTRPA1
hTRPA1 Y812A mutant
  Effect of borneol on the Y812A mutant in Ca2+-imaging: reduced
hTRPA1-S873V/T874L
  Inhibitory effect on AITC-activated current of hTRPA1-S873V/T874L compared with hTRPA1-WT: significantly lower
hTRPA1-Y812A
  Inhibitory effect on AITC-activated current of hTRPA1-Y812A compared with hTRPA1-WT: significantly lower inhibitory effect
[4]
  Effect on fura-2 ratio in vector-transfected cells: did not provide any effect; also recorded: No changes in the fura-2 ratio
hTRPA1 [5]
  IC50: 200 ± 60 µM
  Inhibition of AITC-induced hTRPA1 current: completely inhibited
  Inhibition of FFA-activated hTRPA1-mediated current: completely inhibited
  Inhibition of menthol-activated hTRPA1-mediated current: completely inhibited
hTRPA1 [1]
  Change in fura-2 ratio (340/380 nm) by test compound, normalized to the change by 1 mM menthol: small changes in the fura-2 ratio
hTRPA1 [6]
  Inhibition of the menthol-induced increase in fura-2 ratio: almost completely blocked

## CC12CCC(CC1=O)C2(C)C (centres unmarked) [Camphor]
hTRPA1 [2]
  Effect on hTRPA1 (activation or inhibition): inhibit hTRPA1
hTRPA1-S873V/T874L
  Inhibitory effect on AITC-activated current of hTRPA1-S873V/T874L compared with hTRPA1-WT: no significant changes
hTRPA1-Y812A
  Inhibitory effect on AITC-activated current of hTRPA1-Y812A compared with hTRPA1-WT: such differences between WT hTRPA1 and hTRPA1-Y812A were not observed
mTRPA1
  Effect on mTRPA1-mediated basal current: inhibition of mTRPA1-mediated basal current
hTRPA1 [5]
  Inhibition of AITC-induced hTRPA1 current: partially inhibited

## CC12CCC(C1)C(C)(C)C2O (centres unmarked) [Fenchyl alcohol]
hTRPA1 [3]; [7]
  Activation of whole-cell hTRPA1 current: did not activate hTRPA1
hTRPA1 [5]
  Inhibition of AITC-induced hTRPA1 current: completely inhibited
  Inhibition of FFA-activated hTRPA1-mediated current: completely inhibited
  Inhibition of menthol-activated hTRPA1-mediated current: completely inhibited

## O=C1CC2CC[C@H]1C2 [Norcamphor]
hTRPA1 [3]; [7]
  Activation of whole-cell hTRPA1 current: did not activate hTRPA1
[4]
  Effect on fura-2 ratio in vector-transfected cells: did not provide any effect; also recorded: No changes in the fura-2 ratio
hTRPA1 [1]
  Change in fura-2 ratio (340/380 nm) by test compound, normalized to the change by 1 mM menthol: small changes in the fura-2 ratio
hTRPA1 [6]
  Inhibition of the menthol-induced increase in fura-2 ratio: did not inhibit

## CC1CCC(C(C)C)C(O)C1 (centres unmarked) [menthol]
hTRPA1 [2]
  Effect on hTRPA1 (activation or inhibition): activate hTRPA1
